Measurements published in article PMC5376326, “Inhibition of ANO1 by luteolin and its cytotoxicity in human prostate cancer PC-3 cells” (PLoS ONE, 2017).
Where “and” joins values, the source holds several entries; their conditions need not be identical. Equal values may be shown once.

Columns and labels:
[1] = target: T1, ANO1 (Homo sapiens, UniProt Q5XXA6); experiment: YFP quenching assay of ANO1 activity in PC-3 cells; assay type: cell-based; conditions: PC-3 cells expressing high levels of ANO1; indicated concentrations
T1 construct: PC-3 prostate cancer cells expressing high levels of ANO1 endogenously; endogenous in cells; host or cells: PC-3 cells (clones with high ANO1 expression; stably transfected only with the YFP halide sensor)
T1 sequence (Q5XXA6 1-986): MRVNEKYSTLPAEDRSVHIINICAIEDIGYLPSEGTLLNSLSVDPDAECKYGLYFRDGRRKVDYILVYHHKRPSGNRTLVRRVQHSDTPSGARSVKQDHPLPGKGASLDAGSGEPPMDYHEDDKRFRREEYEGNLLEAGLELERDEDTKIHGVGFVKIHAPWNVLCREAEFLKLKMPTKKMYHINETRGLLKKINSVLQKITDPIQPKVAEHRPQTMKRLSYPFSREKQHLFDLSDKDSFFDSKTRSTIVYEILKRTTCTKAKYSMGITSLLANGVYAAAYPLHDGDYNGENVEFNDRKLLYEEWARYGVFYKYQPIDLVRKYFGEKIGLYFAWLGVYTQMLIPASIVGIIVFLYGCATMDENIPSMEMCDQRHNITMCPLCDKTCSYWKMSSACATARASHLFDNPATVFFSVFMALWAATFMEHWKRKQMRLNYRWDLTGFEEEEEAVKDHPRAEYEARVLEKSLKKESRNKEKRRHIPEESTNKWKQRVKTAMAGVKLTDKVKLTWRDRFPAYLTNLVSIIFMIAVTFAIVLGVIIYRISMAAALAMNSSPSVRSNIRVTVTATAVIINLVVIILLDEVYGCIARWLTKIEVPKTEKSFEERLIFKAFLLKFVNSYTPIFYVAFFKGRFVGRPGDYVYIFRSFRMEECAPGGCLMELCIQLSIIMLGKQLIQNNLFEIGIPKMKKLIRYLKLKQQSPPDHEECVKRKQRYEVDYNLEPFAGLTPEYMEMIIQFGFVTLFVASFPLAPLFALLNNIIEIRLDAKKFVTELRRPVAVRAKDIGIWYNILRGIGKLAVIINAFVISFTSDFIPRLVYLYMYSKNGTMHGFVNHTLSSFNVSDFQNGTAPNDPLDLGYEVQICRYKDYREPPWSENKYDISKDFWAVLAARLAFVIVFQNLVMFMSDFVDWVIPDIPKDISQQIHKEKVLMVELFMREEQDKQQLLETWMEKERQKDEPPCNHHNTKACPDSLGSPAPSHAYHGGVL
Method: Initial iodide influx rate was determined from the initial slope of fluorescence decrease, by nonlinear regression, following infusion of iodide with ATP.

[2] = target: T2, human ANO1 (abc) (Homo sapiens, UniProt Q5XXA6, DEL476-501); experiment: YFP fluorescence quenching assay (iodide influx) in FRT cells expressing human ANO1; assay type: cell-based; conditions: for IC50: FRT cells expressing ANO1 and YFP, ATP activation, mean ± S.E., n = 3, read-out: IC50, ANO1 inhibition (YFP fluorescence quenching)
T2 sequence (Q5XXA6 with tags, fused parts or gaps isoform Q5XXA6-5 DEL539-564): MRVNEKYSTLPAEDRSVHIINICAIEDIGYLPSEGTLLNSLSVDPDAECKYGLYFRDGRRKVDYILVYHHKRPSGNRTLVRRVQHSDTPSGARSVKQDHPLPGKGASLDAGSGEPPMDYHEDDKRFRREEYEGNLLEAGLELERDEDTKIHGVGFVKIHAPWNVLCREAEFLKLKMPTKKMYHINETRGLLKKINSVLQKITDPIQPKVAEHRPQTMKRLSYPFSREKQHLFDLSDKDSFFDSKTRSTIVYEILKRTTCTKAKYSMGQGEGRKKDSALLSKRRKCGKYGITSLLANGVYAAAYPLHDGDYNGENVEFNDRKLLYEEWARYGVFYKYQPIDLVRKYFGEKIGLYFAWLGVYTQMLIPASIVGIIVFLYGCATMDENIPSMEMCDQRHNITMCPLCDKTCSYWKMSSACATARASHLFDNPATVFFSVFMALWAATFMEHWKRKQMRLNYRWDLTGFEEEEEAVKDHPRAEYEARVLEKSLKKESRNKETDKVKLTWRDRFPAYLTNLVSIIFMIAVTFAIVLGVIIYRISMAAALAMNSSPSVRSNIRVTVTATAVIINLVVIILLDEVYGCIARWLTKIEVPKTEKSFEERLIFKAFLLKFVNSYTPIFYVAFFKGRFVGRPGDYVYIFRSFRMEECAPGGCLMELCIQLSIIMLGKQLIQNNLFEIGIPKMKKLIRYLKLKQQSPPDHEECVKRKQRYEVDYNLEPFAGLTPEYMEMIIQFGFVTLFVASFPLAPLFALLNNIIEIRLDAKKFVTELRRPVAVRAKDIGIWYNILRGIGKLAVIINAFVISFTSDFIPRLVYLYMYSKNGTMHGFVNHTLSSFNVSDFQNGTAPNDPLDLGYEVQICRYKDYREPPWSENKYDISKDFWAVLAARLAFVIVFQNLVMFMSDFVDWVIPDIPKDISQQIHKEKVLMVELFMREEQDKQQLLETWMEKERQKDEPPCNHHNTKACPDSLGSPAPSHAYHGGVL
Method: Fisher rat thyroid (FRT) cells were stably transfected with human ANO1 (abc) or mouse ANO2 and the halide sensor YFP as described in previous study. FRT cells were cultured in Coon`s modified F12 medium with 10% FBS, 2 mM L-glutamine, 100 units/ml penicillin and 100 μg/ml streptomycin at 37°C and 5% CO2. PC-3 cells were grown in RPMI 1640 medium supplemented with 10% FBS, 100 units/ml penicillin and 100 μg/ml streptomycin at 37°C and 5% CO2. There were populations of PC-3 cells with high and low expression of ANO1. To separate high and low levels of ANO1 expressing PC-3 cells, cells were stably transfected with the halide sensor YFP-H148Q/I152L/F46L and then the cells were plated on 96 well plates at 1 cell per well. After two weeks of incubation, high and low levels of ANO1 expressing PC-3 cells were separated by YFP quenching assay. ANO1 was activated by 100 μM ATP.
ANO1 and YFP expressing FRT cells were plated in 96-well black-walled microplates (Corning Inc., Corning, NY) at a density of 20,000 cells per well. Assays were done using FLUOstar Omega microplate reader (BMG Labtech, Ortenberg, Germany) and MARS Data Analysis Software (BMG Labtech) as described in our previous study. Briefly, each well of 96-well plate was washed 3 times in PBS (200 μL/wash) and test compounds were added to each well at 25 μM final concentration. After 10 minutes incubation at 37°C, 96-well plates were transferred to the plate reader for fluorescence assay. Each well was assayed individually for ANO1-mediated I^- influx by monitoring YFP fluorescence continuously (400 ms per point) for 2 s (baseline), then 140 mM I^- solution containing 200 μM ATP was added at 2 s and then YFP fluorescence was recorded for 6 s. Initial iodide influx rate was determined from the initial slope of fluorescence decrease, by nonlinear regression, following infusion of iodide with ATP.

Row | SMILES | Inhibition of ANO1 activity [1] | IC50 [2] | Block of ATP-induced ANO1 activation (YFP) ([2]; 100 μM)
1 | O=c1c(O)c(-c2ccc(O)cc2)oc2cc(O)cc(O)c12 [Kaempferol] | significantly inhibited | 14.55 ± 0.03 µM | –
2 | O=c1cc(-c2ccc(O)c(O)c2)oc2cc(O)cc(O)c12 [luteolin] | potently inhibited | 9.37 µM and ~9.4 µM | almost completely blocked
